target: T1, human Edg-1(S1P1) (Homo sapiens, UniProt P21453); assay: Cell system binding test: inhibition of [3H]-S1P binding to Edg-1(S1P1) gene transferred HEK-293 cells; settings: 10 μM compound, [3H]-S1P 10 nM, read-out: Cell system binding test % inhibition (10 μM)
T1 construct: expressed in transfected cells; host or cells: HEK-293
Method: Cells (1×10^5 cells/well) obtained as described above were seeded in poly-L-lysine-coated 96-well plates (Corning Incorporated), and then incubated in a 5% carbon dioxide gas incubator for 12 hours at 37° C. with the use of an MEM medium (Invitrogen Corporation) containing 100 U/mL of penicillin, 100 μg/mL of streptomycin, a 1% MEM nonessential amino acid solution, and 10% FCS. […] After the cells were washed twice with the buffer, they were solubilized with 100 μL of Opti Phase Supermix (produced by Perkin-Elmer), and measured for radioactivity by means of Micro Beta (produced by Perkin-Elmer).
Inhibition rate(%)=[1−(A−C)/(B−C)]×100

T1 sequence (P21453 whole entry): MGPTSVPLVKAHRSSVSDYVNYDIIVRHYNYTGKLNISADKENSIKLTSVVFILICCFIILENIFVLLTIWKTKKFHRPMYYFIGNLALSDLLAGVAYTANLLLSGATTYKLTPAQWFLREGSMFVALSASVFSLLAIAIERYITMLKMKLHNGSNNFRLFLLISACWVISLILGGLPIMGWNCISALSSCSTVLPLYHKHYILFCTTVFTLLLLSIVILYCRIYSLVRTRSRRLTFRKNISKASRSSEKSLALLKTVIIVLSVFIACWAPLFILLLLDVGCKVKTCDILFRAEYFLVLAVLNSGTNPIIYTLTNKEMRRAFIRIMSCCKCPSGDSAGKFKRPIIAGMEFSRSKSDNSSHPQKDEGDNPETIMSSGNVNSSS

Row | inhibition at 10 µM [%] | SMILES
1 | 89.3 | CCn1c(SCc2ccc(C(C)(C)C)cc2)nnc1C(C)NS(=O)(=O)c1ccc(Cl)cc1 (stereo not shown) [Compound 89]
2 | 85.6 | CCn1c(OC)nnc1[C@@H](C)NS(=O)(=O)c1ccccc1Cl [Compound 194]
3 | 93.9 | CCn1c(OC)nnc1[C@@H](C)NS(=O)(=O)c1ccc(S(C)(=O)=O)cc1 [Compound 228]
4 | 86.8 | CCn1c(OC)nnc1[C@@H](C)NS(=O)(=O)c1ccccc1C(=O)OC [Compound 259]
5 | 89.6 | CCn1c(OC)nnc1[C@@H](C)NS(=O)(=O)c1ccc(C(C)(C)CC)cc1 [Compound 271]
6 | 88.9 | CCn1c(OC)nnc1[C@@H](C)NS(=O)(=O)c1ccccc1OC(F)(F)F [Compound 276]
7 | 70.9 | CCn1c(OC)nnc1[C@@H](C)NS(=O)(=O)c1ccc(Oc2ccccc2)cc1 [Compound 278]
8 | 101 | CCn1c(OC)nnc1[C@@H](C)NS(=O)(=O)c1ccc(F)cc1F [Compound 279]
9 | 91 | CCn1c(OC)nnc1[C@@H](C)NS(=O)(=O)c1ccccc1F [Compound 280]
10 | 73.9 | CCn1c(OC)nnc1[C@@H](C)NS(=O)(=O)c1ccccc1I [Compound 283]
11 | 31.8 | CCn1c(OC)nnc1[C@@H](C)NS(=O)(=O)Cc1ccc(Cl)cc1 [Compound 293]

The remaining lines, values behind:

Row | SMILES | inhibition at 10 µM [%]
12 | C=CCSc1nnc([C@@H](C)NS(=O)(=O)c2ccc(Cl)cc2)n1C [Compound 92] | 88.3
13 | C=CCSc1nnc(C(CC)NS(=O)(=O)c2ccc(Cl)cc2)n1C (stereo not shown) [Compound 105] | 71.5
14 | CCCC(NS(=O)(=O)c1ccc(Cl)cc1)c1nnc(SCc2ccccc2)n1C (stereo not shown) [Compound 126] | 77
15 | CCCC(NS(=O)(=O)c1ccc(Cl)cc1)c1nnc(SCc2ccc(C)cc2)n1C (stereo not shown) [Compound 127] | 63.6
16 | C=CCSc1nnc([C@@H](Cc2ccccc2)NS(=O)(=O)c2ccc(Cl)cc2)n1CCCC [Compound 145] | 46
17 | C=CCSc1nnc([C@@H](Cc2ccccc2)NS(=O)(=O)c2ccc(Cl)cc2)n1CC(C)C [Compound 147] | 75.2
18 | C=CCSc1nnc([C@@H](Cc2ccccc2)NS(=O)(=O)c2ccc(Cl)cc2)n1C(C)CC (stereo partly shown) [Compound 149] | 63.4
19 | C=CCSc1nnc([C@@H](Cc2ccccc2)NS(=O)(=O)c2ccc(Cl)cc2)n1CCOC [Compound 151] | 41.6
20 | C=CCSc1nnc([C@@H](Cc2ccccc2)NS(=O)(=O)c2ccc(Cl)cc2)n1CCN1CCOCC1 [Compound 153] | 26.8
21 | C=CCSc1nnc([C@@H](Cc2ccccc2)NS(=O)(=O)c2ccc(Cl)cc2)n1C1CCCC1 [Compound 164] | 40.4
22 | CCn1c([C@@H](C)NS(=O)(=O)c2ccc(Cl)cc2)nnc1[S+](C)[O-] (stereo partly drawn) [Compound 180, 4-Chloro-N-{(1R)-1-[4-ethyl-5-(methylsulfinyl)-4H-1,2,4-triazol-3-yl]ethyl}benzenesulfonamide] | 48.9
23 | CCn1c(OC)nnc1[C@@H](C)NS(=O)(=O)c1c(Cl)cccc1Cl [Compound 219] | 95.9
24 | CCn1c(OC)nnc1[C@@H](C)NS(=O)(=O)c1c(C)cc(C)cc1C [Compound 225] | 94
25 | CCn1c(OC)nnc1[C@@H](C)NS(=O)(=O)Cc1ccccc1[N+](=O)[O-] [Compound 234] | 90.9
26 | CCCCCCCCS(=O)(=O)N[C@H](C)c1nnc(OC)n1CC [Compound 236] | 98.9
27 | CCCS(=O)(=O)N[C@H](C)c1nnc(OC)n1CC [Compound 239] | 92.7
28 | CCn1c(OC)nnc1[C@@H](C)NS(=O)(=O)Cc1ccccc1 [Compound 244] | 92.3
29 | CCn1c(OC)nnc1[C@@H](C)NS(=O)(=O)c1c(C)nn(C)c1Cl [Compound 253] | 83.4
30 | CCn1c(OC)nnc1[C@@H](C)NS(=O)(=O)c1c(C)noc1C [Compound 254] | 84.6
31 | CCn1c(OC)nnc1[C@@H](C)NS(=O)(=O)c1ccc(C(=O)OC)o1 [Compound 256] | 95.6

Reference: US8022225B2, “Triazole derivative” (Taisho Pharmaceutical Co., Ltd, priority 2004, dated 2011)
